Reference: patent US20050075375A1 (priority 2003, published 2005)
Where two headings read alike, the source gives them in different places.

System: monocistronic NK5.1 HCV replicon in Huh7 cells
Assay: HCV replicon assay, monocistronic replicon cell line
Assay type: cell-based, hepatitis C virus
Settings: Hepatitis C virus, read-out: Mono EC50 Median
In short: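 Huh7 cells carrying the monocistronic NK5.1 replicon, seeded 24 h before dosing, were exposed to six-point half-log compound series (0.6% DMSO) for 3 days at 37 °C. Replicon RNA was quantified by TaqMan RT-PCR, normalised to GAPDH and compared with DMSO controls to derive EC50.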

[1] = Huh-7, 72 h, table T3 (compounds 471-640), monocistronic replicon in Huh7 cells, 3 days incubation, HCV RNA/GAPDH RNA by TaqMan RT-PCR
[2] = Huh-7, 72 h, Table 1, monocistronic replicon in Huh7 cells, 3 days incubation, HCV RNA/GAPDH RNA by TaqMan RT-PCR
[3] = Huh-7, monocistronic NK5.1 HCV replicon in Huh7 cells, median value

With `Fc1cc(-c2nc(-c3ncccc3C(F)(F)F)n[nH]2)ccc1-c1ccccc1` [Compound 538, 2-[5-(2-Fluoro-biphenyl-4-yl)-1H-[1,2,4]triazol-3-yl]-3-trifluoromethyl-pyridine] the EC50 [1] was > 19 µM.
In the case of `O=[N+]([O-])c1cccc(-c2nc(-c3ccccn3)no2)c1` [Compound 148, 2-[5-(3-Nitro-phenyl)-[1,2,4]oxadiazol-3-yl]-pyridine], the EC50 [2] is reported as > 19 µM.
In the case of `Brc1cccc(-c2nc(-c3nccc4ccccc34)n[nH]2)c1` [Compound 438], the EC50 [3] is reported as > 19 µM.
`FC(F)(F)c1cccnc1-c1n[nH]c(-c2cccc3ccccc23)n1` [Compound 530, 2-(5-Naphthalen-1-yl-1H-[1,2,4]triazol-3-yl)-3-trifluoromethyl-pyridine] was tested, and the EC50 [1] was > 19 µM.
For `Cc1ccc(O)c(-c2nc(-c3nccc4ccccc34)no2)c1` [Compound 194, 2-(3-Isoquinolin-1-yl-[1,2,4]oxadiazol-5-yl)-4-methyl-phenol], the EC50 [2] was > 10 µM.
For `Cc1cc(C(F)(F)F)cc(-n2nc(-c3c(O)ccc4ccccc34)cc2C)n1` [Compound 27, 1-[5-Methyl-i-(6-methyl-4-trifluoromethyl-pyridin-2-yl)-1 H-pyrazol-3-yl]-naphthalen-2-ol], the EC50 [2] was 12 µM.
With `COc1ccc(O)c(-c2ccn(Cc3ccc4ccccc4n3)n2)c1` [Compound 111, 4-Methoxy-2-(1-quinolin-2-ylmethyl-1H-pyrazol-3-yl)-phenol] the EC50 [2] was 14 µM.
For `COc1ccc(O)c(-c2nc(-c3cnccc3C(F)(F)F)n[nH]2)c1` [Compound 414, 4-Methoxy-2-[5-(4-trifluoromethyl-pyridin-3-yl)-2H-[1,2,4]triazol-3-yl]-phenol], the EC50 [3] was > 19 µM.
With `Cc1cc(-c2ccccc2O)nn1-c1ccccc1C(F)(F)F` [Compound 7, 2-[5-Methyl-i-(2-trifluoromethyl-phenyl)-1H-pyrazol-3-yl]-phenol] the EC50 [2] was 20 µM.
For `CCCNC(=O)c1cc(-c2ccc(OC)cc2)nn1-c1ncccc1[N+](=O)[O-]` [Compound 70, 5-(4-Methoxy-phenyl)-2-(3-nitro-pyridin-2-yl)-2H-pyrazole-3-carboxylic acid propylamide], the EC50 [2] was > 32 µM.
`Oc1cc(OCc2ccccc2)ccc1-c1nc(-c2cnccc2C(F)(F)F)n[nH]1` [Compound 417, 5-Benzyloxy-2-[5-(4-trifluoromethyl-pyridin-3-yl)-2H-[1,2,4]triazol-3-yl]-phenol] was tested, and the EC50 [3] was > 19 µM.
`COc1ccc(O)c(-c2nc(-c3nccc4ccccc34)n[nH]2)c1` [Compound 370, 4-Methoxy-2-(5-isoquinolin-1-yl-2H-[1,2,4]triazol-3-yl)-phenol] gave an EC50 [3] of 2.9 µM.
In the case of `COc1ccc(-c2nc(-c3ncccc3Br)n[nH]2)c(O)c1` [Compound 494, 2-[5-(3-Bromo-pyridin-2-yl)-2H-[1,2,4]triazol-3-yl]-5-Methoxy-phenol], the EC50 [1] is reported as > 32 µM.
`Cc1cc(-c2c(O)ccc3ccccc23)nn1-c1ncccc1[N+](=O)[O-]` [Compound 25, 1-[5-Methyl-1-(3-nitro-pyridin-2-yl)-1H-pyrazol-3-yl]-naphthalen-2-ol] was tested, and the EC50 [2] was > 19 µM.
In the case of `Cc1ccccc1-c1nnc(-c2ccccc2F)o1` [Compound 313, 2-(2-Fluoro-phenyl)-5-o-tolyl-[1,3,4]oxadiazole], the EC50 [3] is reported as > 32 µM.
With `Fc1ccccc1-c1nnc(-c2ccccn2)o1` [Compound 347, 2-[5-(2-Fluoro-phenyl)-[1,3,4]oxadiazol-2-yl]-pyridine] the EC50 [3] was > 32 µM.
For `Oc1ccc(F)cc1-c1nc(-c2ncccc2Br)n[nH]1` [Compound 486, 2-[5-(3-Bromo-pyridin-2-yl)-2H-[1,2,4]triazol-3-yl]-4-Fluoro-phenol], the EC50 [1] was 7.4 µM.
In the case of `CCN(CC)c1ccc(-c2nc(-c3ccccn3)n[nH]2)c(O)c1` [Compound 365, 5-Diethylamino-2-(5-pyridin-2-yl-2H-[1,2,4]triazol-3-yl)-phenol], the EC50 [3] is reported as > 32 µM.
`COc1ccc(-c2ccnn2-c2c(Cl)cncc2Cl)c(F)c1` [Compound 50, 3,5-Dichloro-4-[5-(2-fluoro-4-methoxy-phenyl)-pyrazol-1-yl]-pyridine] gave an EC50 [2] of 5.8 µM.
With `Cc1ccc(O)c(-c2nc(-c3ncccc3[N+](=O)[O-])no2)c1` [Compound 174, 4-Methyl-2-[3-(3-nitro-pyridin-2-yl)-[1,2,4]oxadiazol-5-yl]-phenol] the EC50 [2] was 10 µM.
In the case of `Cc1cc(-c2cc(C)c(C)cc2O)n(-c2ccccc2C)n1` [Compound 10, 4,5-Dimethyl-2-(5-methyl-2-o-tolyl-2H-pyrazol-3-yl)-phenol], the EC50 [2] is reported as > 19 µM.
`Oc1ccc(Cl)cc1-c1nc(-c2ncccc2Br)n[nH]1` [Compound 488, 2-[5-(3-Bromo-pyridin-2-yl)-2H-[1,2,4]triazol-3-yl]-4-Chloro-phenol] was tested, and the EC50 [1] was 2.7 µM.
In the case of `Cc1cccnc1-c1cc(-c2cc(Br)ccc2O)no1` [Compound 131, 4-Bromo-2-[5-(3-methyl-pyridin-2-yl)-isoxazol-3-yl]-phenol], the EC50 [2] is reported as 4.5 µM.
For `COc1ccc(O)c(-c2ccnn2Cc2ccccn2)c1` [Compound 115, 4-Methoxy-2-(2-pyridin-2-ylmethyl-2H-pyrazol-3-yl)-phenol], the EC50 [2] was > 32 µM.
In the case of `Cc1cc(-c2ccccc2O)n(-c2ccccc2[N+](=O)[O-])n1` [Compound 3, 2-[5-Methyl-2-(2-nitro-phenyl)-2H-pyrazol-3-yl]-phenol], the EC50 [2] is reported as 31 µM.
`Cc1cccc(-c2n[nH]c(-c3cccc(Br)c3)n2)n1` [Compound 463, 2-[5-(3-Bromo-phenyl)-1H-[1,2,4]triazol-3-yl]-6-methyl-pyridine] was tested, and the EC50 [3] was 19 µM.
For `CC(C)(C)c1ccc(O)c(-c2nc(-c3ccccn3)n[nH]2)c1` [Compound 351, 4-tert-Butyl-2-(5-pyridin-2-yl-2H-[1,2,4]triazol-3-yl)-phenol], the EC50 [3] was 8.6 µM.
`Oc1ccc(F)cc1-c1nc(-c2cnccc2C(F)(F)F)n[nH]1` [Compound 413, 4-Fluoro-2-[5-(4-trifluoromethyl-pyridin-3-yl)-2H-[1,2,4]triazol-3-yl]-phenol] was tested, and the EC50 [3] was > 19 µM.
`COc1ccc(-c2nc(-c3ccc(NC(=O)OC(C)(C)C)cn3)no2)c(O)c1` [Compound 238, {6-[5-(2-Hydroxy-4-methoxy-phenyl)-[1,2,4]oxadiazol-3-yl]-pyridin-3-yl}-carbamic acid tert-butyl ester] showed an EC50 [2] of 1.9 µM and an EC50 [3] of 1.9 µM.
For `CC(C)(C)c1ccc(O)c(-c2nc(-c3nccc4ccccc34)n[nH]2)c1` [Compound 367, 4-tert-Butyl-2-(5-isoquinolin-1-yl-2H-[1,2,4]triazol-3-yl)-phenol], the EC50 [3] was > 32 µM.
For `Fc1ccccc1-c1nc(-c2ccccn2)n[nH]1` [Compound 434, 2-[5-(2-Fluoro-phenyl)-1H-[1,2,4]triazol-3-yl]-pyridine], the EC50 [3] was > 19 µM.
`Fc1ccccc1-c1nnc(-c2c(Cl)cccc2Cl)o1` [Compound 335, 2-(2,6-Dichloro-phenyl)-5-(2-fluoro-phenyl)-[1,3,4]oxadiazole] was tested, and the EC50 [3] was > 32 µM.
Work on `COc1ccc(O)c(-c2nc(-c3ncccc3C(F)(F)F)nn2C)c1` [Compound 632, 4-Methoxy-2-[2-methyl-5-(3-trifluoromethyl-pyridin-2-yl)-2H-[1,2,4]triazol-3-yl]-phenol] yielded an EC50 [1] of 31 µM.
With `Oc1ccccc1-c1ccnn1-c1ccccc1F` [Compound 35, 2-[2-(2-Fluoro-phenyl)-2H-pyrazol-3-yl]-phenol] the EC50 [2] was 14 µM.
In the case of `Cc1ccccc1-c1nnc(-c2ccccc2)o1` [Compound 312, 2-Phenyl-5-o-tolyl-[1,3,4]oxadiazole], the EC50 [3] is reported as > 32 µM.
In the case of `Cc1cc(-c2ccc3ccccc3c2O)nn1-c1ccc(C(C)C)cc1` [Compound 29, 2-[1-(4-Isopropyl-phenyl)-5-methyl-1H-pyrazol-3-yl]-naphthalen-1-ol], the EC50 [2] is reported as > 19 µM.
For `Fc1cc(Br)ccc1-c1nc(-c2ncccc2C(F)(F)F)n[nH]1` [Compound 552, 2-[5-(4-Bromo-2-fluoro-phenyl)-1H-[1,2,4]triazol-3-yl]-3-trifluoromethyl-pyridine], the EC50 [1] was > 19 µM.
`COc1cccc(-c2nc(-c3ccc(C(F)(F)F)cn3)no2)c1` [Compound 220, 2-[5-(3-Methoxy-phenyl)-[1,2,4]oxadiazol-3-yl]-5-trifluoromethyl-pyridine] was tested, and the EC50 [2] was > 32 µM and the EC50 [3] was > 32 µM.
For `COc1ccc(O)c(-c2nc(-c3ccc(NC(C)=O)cn3)no2)c1` [Compound 262, N-{6-[5-(2-Hydroxy-5-methoxy-phenyl)-[1,2,4]oxadiazol-3-yl]-pyridin-3-yl}-acetamide], the EC50 [3] was 19.2 µM.
With `COc1ccc2ccccc2c1-c1nc(-c2ccccn2)no1` [Compound 143, 2-[5-(2-Methoxy-naphthalen-1-yl)-[1,2,4]oxadiazol-3-yl]-pyridine] the EC50 [2] was 13 µM.
For `Cc1cccnc1-c1noc(-c2cccc(C)c2O)n1` [Compound 293, 2-Methyl-6-[3-(3-methyl-pyridin-2-yl)-[1,2,4]oxadiazol-5-yl]-phenol], the EC50 [3] was 1.7 µM.
Work on `Oc1ccc(Br)cc1-c1nc(-c2ncccn2)n[nH]1` [Compound 566, 4-Bromo-2-(5-pyrimidin-2-yl-2H-[1,2,4]triazol-3-yl)-phenol] yielded an EC50 [1] of 5.9 µM.
In the case of `CCOc1cccc(-c2nc(-c3ccc(C(F)(F)F)cn3)n[nH]2)c1O` [Compound 512, 6-Ethoxy-2-[5-(5-trifluoromethyl-pyridin-2-yl)-2H-[1,2,4]triazol-3-yl]-phenol], the EC50 [1] is reported as > 19 µM.
`Cc1cccnc1-c1nc(-c2cc(F)ccc2O)n(C)n1` [Compound 608, 4-Fluoro-2-[2-methyl-5-(3-methyl-pyridin-2-yl)-2H-[1,2,4]triazol-3-yl]-phenol] gave an EC50 [1] of 8.1 µM.
`COc1ccc(O)c(-c2nc(-c3ccccn3)nn2C)c1` [Compound 598, 4-Methoxy-2-(2-methyl-5-pyridin-2-yl-2H-[1,2,4]triazol-3-yl)-phenol] was tested, and the EC50 [1] was > 32 µM.
For `CC(C)c1ccc(-c2nc(-c3ccccn3)n[nH]2)cc1` [Compound 389, 2-[5-(4-Isopropyl-phenyl)-1H-[1,2,4]triazol-3-yl]-pyridine], the EC50 [3] was > 19 µM.
